# Reference: paper PMC6584114, “Metabolism of IMM-H004 and Its Pharmacokinetic-Pharmacodynamic Analysis in Cerebral Ischemia/Reperfusion Injured Rats” (Frontiers in Pharmacology, 2019)
# How the values were obtained:
# [1] = tested on: human liver microsomes (HLMs); assay: Kinetics of IMM-H004 demethylation (M1 and M2 formation) in human liver microsomes; type: in vitro ADME; conditions: substrate IMM-H004
# Method: To compare the metabolic capability of IMM-H004 demethylation in rat and human liver microsomes, the kinetics of M1 and M2 formation in HLMs or RLMs were determined. Enzyme kinetic experiments were performed in triplicate. The incubation mixtures contained HLM/RLM (1 mg protein/ml), IMM-H004 (0.1–1,800 μM), and NADPH (1.2 mM) in a final volume of 0.2 ml Tris-HCl buffer (50 mM, pH 7.4) containing 5 mM MgCl2. The reaction was incubated at 37°C for 20 min and stopped by adding 200 μL of ice-cold acetonitrile containing IS (100 ng/ml). After vortex-mixing and centrifugation, M1 and M2 in the supernatant were analyzed by LC-MS/MS.
# (§1) The LC-MS/MS system consisted of Shimadzu 30A UPLC and API 4000 triple quadruple mass spectrometer (AB SCIEX, USA). Data acquisition and analysis were accomplished using Analyst 1.5.2 software. The analytes and IS were chromatographed by injection of 1 μL sample. The mobile phases consisted of solvent A (0.5% formic acid in water) and solvent B (0.5% formic acid in methanol) at a flow rate of 0.3 ml/min on an Eclipse Plus C18 column (2.1 mm × 50 mm, 3.5 μm, Agilent, USA), and the operating temperature was 40°C. The elution condition was 10% solvent B for 0.7 min, ascending to 98% B in 2.3 min, holding for 3.0 min and reequilibrating to 10% B within 0.1 min and maintained for 2.4 min (Jiang JW, 2018). The specific transitions monitored were 305→248 for IMM-H004, 291→234 for M1, 291→248 for M2, 481→305 for IMM-H004G, 385→305 for M4, and 260→183 for IS.
# [2] = tested on: plasma malondialdehyde (MDA); assay: Plasma MDA suppression (PD) in MCAO/R rats; type: in vivo, rat; conditions: iv IMM-H004 citrate 10 mg/kg after reperfusion
# Method: (§2) The plasma pharmacokinetics (PK) and pharmacodynamics (PD) of IMM-H004 and IMM-H004G were investigated in a cerebral ischemia-reperfusion rat model produced by middle cerebral artery occlusion/reperfusion (MCAO/R) after iv administration of IMM-H004. In brief, rats underwent a 1-h MCAO and then received IMM-H004 citrate (10 mg/kg, dissolved in saline to yield a concentration of 2 mg/ml) immediately after reperfusion, an effective dosing time as reported ([Zuo et al., 2015]; [Yang et al., 2017]). For sham surgery, all the arteries were exposed for the surgical period, but the filament was not inserted into the MCA. Blood samples were collected through external jugular vein cannula into heparinized tubes at 0.033, 0.167, 0.5, 1, 2, 4, 6, 8, 12, 24, 36, and 48 h postdose for IMM-H004 and IMM-H004G detection (50 μL of blood at each time point) and at 0.5, 1, 2, 4, 7, and 10 h postdose for malondialdehyde (MDA) detection (80 μL of blood at each time point). Plasma was immediately separated by centrifugation at 900×g for 5 min. Plasma concentrations of IMM-H004 and IMM-H004G in ischemia-reperfusion rats were determined by LC-MS/MS analysis. The PK parameters were calculated by noncompartmental analysis using WinNonlin Version 6.1 (Pharsight, Mountain View, CA). Plasma MDA concentrations in ischemia-reperfusion and sham rats within 24 h were estimated by enzyme-linked immunosorbent assay.
# [3] = design: method as in Jiang et al., 2018; conditions: rat brain; ref Jiang et al., 2018; cited from earlier work
# [4] = design: method as in Zhang et al., 2017; conditions: rat plasma and brain, 6 mg/kg; ref Zhang et al., 2017; cited from earlier work
# [5] = Excretion in rat urine, bile and feces after iv IMM-H004 citrate; type: in vivo; conditions: iv IMM-H004 citrate 6 mg/kg
# Method: After intravenous (iv) injection with IMM-H004 citrate (6 mg/kg, dissolved in saline to yield a concentration of 1.2 mg/ml), rats were housed individually in metabolic cages to allow separate collection of urine and feces until 72 h postdose. Additional rats were bile cannulated under light ether anesthesia. Each rat was housed individually in a metabolic cage and allowed to recover from anesthesia for 2 to 3 h. Then bile duct cannulated rats were iv injected with IMM-H004 citrate (6 mg/kg, dissolved in saline to yield a concentration of 1.2 mg/ml), bile samples were collected until 24 h postdose.
# Feces samples were homogenized in 10-fold solvent of water and methanol (1:1) and diluted 10-fold in water. Bile and urine samples were diluted 100-fold in water. The concentrations of IMM-H004, M1, M2, and IMM-H004G in diluted bile, urine, and feces samples were determined by LC-MS/MS.
# as §1
# [6] = Plasma pharmacokinetics in MCAO/R rats after iv IMM-H004 citrate; type: in vivo; conditions: rat, iv IMM-H004 citrate 10 mg/kg
# Method: as §2, §1
smiles,measurement,setting,value
"COc1cc(O)cc2oc(=O)c(N3CCN(C)CC3)c(C)c12 [IMM-H004, 7-hydroxy-5-methoxy-4-methyl-3-(4-methylpiperazin-1-yl)-coumarin]",K m of M1 formation (6-demethylation),[1],"2,935.0 μM"
same,K m of M2 formation (N-demethylation),[1],491.4 µM
same,V max of M1 formation (6-demethylation),[1],1.99 nmol/min/mg protein
same,V max of M2 formation (N-demethylation),[1],0.07 nmol/min/mg protein
same,duration of plasma MDA lowering after administration,[2],at least 10 h
same,effect on plasma MDA level,[2]; vs MCAO/R group,significantly lower the increased MDA level at 2 h
same,T max (crossing the blood–brain barrier),[3],12.6 min
same,elimination half-life (t 1/2β),[4],11.4 min
same,recovery of IMM-H004G and IMM-H004 in bile,"[5]; bile duct cannulated rats, until 24 h",76.1 % of intake
same,IMM-H004 in fecal specimens,"[5]; rat feces, until 72 h",18 % of the dose
same,AUC(0-inf),[6],1640 ng·h/mL
same,AUC(0-t),[6],1640 ng·h/mL
same,Cmax,[6],7460 ng/mL
same,MRT last,[6]; read-out: MRT(0-t),10.8 ± 0.6 min
same,MRT inf,[6]; read-out: MRT(0-∞),11.4 ± 1.2 min
same,half-life,[6]; read-out: t 1/2β (converted),25.2 ± 1.8 min
same,Tmax,"[6]; iv, 10 mg/kg, read-out: T max",1.8 min
